This assay has as its system erythroid precursor cells (ErPC) from β-thalassemia patients. The assay can be described thus: Fetal hemoglobin production in erythroid precursor cells from β-thalassemia patients (HPLC). The assay is classed as cell-based, human. The source says: Stimulation of the production of mRNA for γ-globin in human erythroid precursors isolated from peripheral blood was detected by using the technique by Fibach (Fibach, E. Hemoglobin, 1998, 22, 445-458; Blood, 1993, 81, 1630-1635). Blood samples were obtained from subjects after written informed consent and the local ethical commette approved the study. This technique provides for two stages: in the first stage, the cells isolated from peripheral blood of an healthy subject or a subject suffering from a hemopoietic pathology, such as sickle cell anaemia or beta-thalassemia, are sown in a culture medium to which 10% of conditioned medium derived from the vescicle carcinoma cell line 5637 has been added. The second stage consists in cultivating the isolated cells in a suitable culture medium, supplemented with erythropoiethin. In short, mononuclear cells were isolated from peripheral blood samples of normal donors and patients by Ficoll-Hypaque density gradient centrifugation and seeded in alpha-minimal essential medium (Sigma-Aldrich) supplemented with 10% FBS (Analitica de Mori), 1 μg/mL cyclosporin A (Sigma-Aldrich), and 10% conditioned medium from the 5637 bladder carcinoma cell line and 10 ng/ml stem cell factor (PeproTech EC Ltd, London, England). After 7-day incubation in this phase I culture, the non-adherent cells were harvested, washed, and recultured in fresh medium composed of α-medium, 30% FBS, 1% de-ionized bovine serum albumin (Sigma-Aldrich), 10^−5 M β-mercaptoethanol, 2 mM L-glutamine, 10^−6 M dexamethasone, 1 U/ml human recombinant erythropoietin (Tebu-bio, Magenta, MI, Italy) and 10 ng/ml stem cell factor. This part of the culture is referred to as phase II. Compounds were added on day 4-5 of phase II and cells were harvested on day 12. All cultures were incubated at 37° C., under an atmosphere of 5% CO2 in air, with extra humidity. The expression of the genes encoding for γ-globin was evaluated by quantitative RT-PCR. The production of HbF was analyzed by HPLC. […]

“And” between values parts separate entries of the source, which are not always exact repeats. Equal entries are not always repeated.

Take `CCC(=O)CCCCC[C@H](NC(=O)C1CN(C)C1)c1ncc(-c2cc3ccccc3nc2OC)o1` [Compound 2, (S)-N-(1-(5-(2-methoxyquinolin-3-yl)oxazol-2-yl)-7-oxononyl)-1-methylazetidine-3-carboxamide]: where the note is “ErPC from β-thalassemia patients 1-3 (one line per patient), 100 nM”, the “% of fetal hemoglobin production” value was 78.6% and 85.5% and 81.5%. In addition, the “proportion of HbF in lysates (cation-exchange HPLC, FIG. 1)” value (ErPC from β-thalassemic patients, 100 nM, in words) is on record as “Increase in the proportion of HbF is detectable”. Further, the “induction of HbF in erythroid precursor cells (ErPC)” value (ErPC from β-thalassemic patients, in words) is “strong inducer of HbF”.

For the origin of these results see US9371295B2, “Compounds for use in the treatment of disorders that are ameliorated by inhibition of HDAC” (IRBM—Science Park S.p.A., priority 2012, dated 2016).
